Measured values: patent US5976875A, “Diacylglycerol kinase isoforms epsilon and zeta and methods of use thereof” (priority 1997, dated 1999)
Like-named read-outs stand apart in the source and are kept apart here.

Assays:
[1] = test system: protein kinase M (PKM), catalytic fragment of mixed rat brain PKC isozymes; assay: Phosphorylation of peptides by PKM (kinetics); type: biochemical; details: for Km: 10 minute reaction, 30° C., read-out: Km as substrate for PKM
Description: Phosphorylation of peptides and proteins--Peptides were phosphorylated by the purified catalytic fragment of mixed rat brain PKC isozymes (protein kinase M; PKM). In all cases involving kinetic measurements, the peptides were phosphorylated by PKM (1:120 dilution of frozen stock solution) at 30° C. All reactions were performed in the linear range of peptide phosphorylation, in an assay mixture containing 40 mM Hepes (pH 7.4), 0.25 mM EGTA, 12.5 mM MgCl2, 75 μM y-[^32 P]ATP, and various concentrations of peptides. In the peptide experiments, the reactions were stopped after 10 minutes by the addition of 1/5 vol of 5×SDS sample buffer, boiled for 5 minutes and then subjected to electrophoresis on 20% acrylamide gels. After the gels were dried, the phosphorylated peptides were localized by autoradiography, excised from the gel, and subjected to Cerenkov scintillation counting.

DGK.zeta. [2] = molecular target: T1, DGK.zeta. (Homo sapiens, UniProt Q13574); assay: DAG kinase assay, homogenates of DGK.zeta.-transfected COS-7 cells; type: biochemical; details: for nmol phosphatidic acid/mg/h (DAG substrate specificity of DGK.zeta.): each diacylglycerol used as substrate, Table I
T1 construct: The DGK.zeta. cDNA was expressed in pcDNA 1/AMP (Invitrogen) in the foward orientation; expressed in transfected cells; host or cells: COS-7
T1 sequence (Q13574 whole entry): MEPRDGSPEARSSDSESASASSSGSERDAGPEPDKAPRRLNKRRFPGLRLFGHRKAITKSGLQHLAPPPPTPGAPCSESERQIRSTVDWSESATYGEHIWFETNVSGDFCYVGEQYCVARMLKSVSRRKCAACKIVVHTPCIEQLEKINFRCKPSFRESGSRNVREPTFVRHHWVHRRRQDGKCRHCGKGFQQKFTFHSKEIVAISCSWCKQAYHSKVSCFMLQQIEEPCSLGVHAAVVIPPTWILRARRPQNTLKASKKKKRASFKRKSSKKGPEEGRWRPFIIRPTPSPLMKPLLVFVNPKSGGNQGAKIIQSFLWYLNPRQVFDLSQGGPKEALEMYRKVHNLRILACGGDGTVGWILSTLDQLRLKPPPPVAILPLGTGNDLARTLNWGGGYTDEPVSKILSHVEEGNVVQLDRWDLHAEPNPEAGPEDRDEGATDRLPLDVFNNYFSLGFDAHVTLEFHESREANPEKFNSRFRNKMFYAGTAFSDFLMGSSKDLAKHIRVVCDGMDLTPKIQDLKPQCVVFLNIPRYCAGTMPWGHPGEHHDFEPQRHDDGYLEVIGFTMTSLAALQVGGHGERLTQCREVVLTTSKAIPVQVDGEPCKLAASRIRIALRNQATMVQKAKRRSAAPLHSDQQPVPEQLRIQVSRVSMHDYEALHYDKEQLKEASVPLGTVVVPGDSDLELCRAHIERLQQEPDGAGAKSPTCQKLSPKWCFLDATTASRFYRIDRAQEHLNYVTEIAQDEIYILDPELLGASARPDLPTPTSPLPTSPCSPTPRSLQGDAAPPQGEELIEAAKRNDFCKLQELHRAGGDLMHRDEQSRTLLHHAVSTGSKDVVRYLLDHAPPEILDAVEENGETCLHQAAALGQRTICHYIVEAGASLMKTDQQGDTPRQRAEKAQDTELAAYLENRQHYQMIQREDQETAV
Description: (§1) COS-7 Transfection--The DGK.zeta. cDNA was expressed in pcDNA 1/AMP (Invitrogen) in the foward orientation. Each p35 dish containing COS-7 cells at 60-80% confluence was transfected with 1 μg of plasmid DNA and 5 μl of LipofectAMINE according to manufacturer specifications (Life Technologies Inc.). The cells were harvested by washing with ice-cold Hanks' balanced salt solution (Ca^2+ - and […] -free) and were scraped into resuspension buffer (20 mM Tris-HCl, pH 7.4, 0.25 M sucrose, 1 mM EDTA, 4 mM EGTA, 1 mM dithiothreitol, 1 mM pheylmethylsulfonyl fluoride, 20 μg/ml each leupeptin, pepstain, aprotinin, and soybean trypsin inhibitor) 48 h following transfection. All homogenates were frozen on dry ice and stored at -70° C. until assayed.
(§2) DAG Kinase Assay--Cell homogenates were sonicated twice with 5 watts for 5 at 4° C. The protein concentration of each cell homogenate was measured following trichloracetic acid precipitation utilizing the BCA protein assay reagent (Pierce). Each assay contained 50 mM MOPS, pH 7.2, 100 mM NaCl, 20 mM MgCl2, 1 mM EGTA, 1 mM dithiothreitol, 2 mM 1,2-dieleoyl-an-glycerol, 3.5 mM phosphatidylserine, 75 mM octyl-β-glucopyranoside, 500 μM [γ^32 ]ATP, and 0-20 μg of cell homogenate in a volume of 200 μl. For substrate specificity experiments, various diacylglycerol species were substituted for 1,2-dioleoyl-an-glycerol. The reactions were initiated by the addition of ATP (20-30 μCi/μmol), were incubated for 10 min. At 24° C., and were terminated by the addition of 200 μl of 1% perchloric acid. Then, to each tube, we added 1.0 ml of MeOH, 1.0 ml of […], 500 μl of 1% perchloric acid, and 50 μg of phosphatidic acid, vortexed them well, and centrifuged them for 10 min at 400×g. The remaining lower phase was dried under N2 and resuspended in 100 μl of 9:1 CHCl3 /MeOH. Fifty μl of each sample were counted directly by liquid acintillation spectrometry, and the remainder was applied to a 20×20 cm Silica 60A thin layer chromatography plate (Whatman). […] The region containing phosphatidic acid (as indicated by radiolabeled standards) and the remaining areas of each lane were scraped separately, and the radioactivity was estimated by liquid scintillation spectrometry. The amount of phosphatidic acid formed per reaction was calculated as [2(direct count)(PA cpm)(total lane cpm)]×[mole ATP/cpm]. R59959 was dissolved in dimethyl sulfoxide and added to relevant enzymatic reactions just prior to the addition of ATP.

DGKε = molecular target: T2, DGKε (Homo sapiens, UniProt P52429); assay: octyl glucoside/PS mixed-micelle assay of DGK activity, homogenates of DGKε-transfected COS-7 cells; type: biochemical; details: for inhibition of DGKε activity: 100 μm inhibitor, homogenates from transfected cells
T2 construct: a PCR product of the DGKε cDNA lacking the 3'-untranslated region and part of the 5'-untranslated region was amplified; expressed in transfected cells; host or cells: COS-7
T2 sequence (P52429 1-567): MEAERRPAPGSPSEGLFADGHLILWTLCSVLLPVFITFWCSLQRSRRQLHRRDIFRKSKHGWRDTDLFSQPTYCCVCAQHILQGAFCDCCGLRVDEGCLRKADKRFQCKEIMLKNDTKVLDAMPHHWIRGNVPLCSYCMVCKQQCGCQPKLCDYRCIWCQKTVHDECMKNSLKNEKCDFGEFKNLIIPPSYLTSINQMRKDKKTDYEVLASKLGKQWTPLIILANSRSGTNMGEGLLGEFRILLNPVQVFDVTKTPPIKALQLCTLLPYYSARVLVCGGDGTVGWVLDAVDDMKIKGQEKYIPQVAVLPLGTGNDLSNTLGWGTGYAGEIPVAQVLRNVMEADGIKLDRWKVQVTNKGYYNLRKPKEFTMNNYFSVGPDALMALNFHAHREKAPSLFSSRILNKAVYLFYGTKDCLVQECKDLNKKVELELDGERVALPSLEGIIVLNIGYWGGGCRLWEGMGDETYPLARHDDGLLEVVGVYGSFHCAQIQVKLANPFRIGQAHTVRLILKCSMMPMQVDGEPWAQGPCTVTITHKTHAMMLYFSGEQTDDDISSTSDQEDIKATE
Description: COS-7 Transfection and Assay of DGK Activity--COS-7 transfection was carried out using LipofectAMINE reagent (Life Technologies, Inc.), and all steps were followed by the protocol provided by the manufacturer. After 2.5 days, the cells were harvested and lysed by sonication (twice with 5 watts for 5 s at 4° C.) in the lysis buffer (0.1 ml/35 mm well) containing 20 mm Tris-HCL, pH 7.4, 0.25 m sucrose, 1 mm EDTA, 4 mm EGTA, 1 mm dithiothreitol, 1 mm phenylmethylsulfonyl fluoride, a 20 μg/ml concentration of each: leupeptin, pepstatin, aprotinin, and soybean trypsin inhibitor. Kai, M., Sakane, F., Imai, S., Wada, I., and Kanoh, H. (1994) J. Biol. Chem. 269, 18492-18498. The protein concentration of the cell homogenate was determined with the BCA protein assay reagent (Pierce). In two experiments, the homogenate was separated into soluble and membrane-bound fractions by centrifugation at 100,000×g for 60 min. (4° C.). The pellet was resuspended in lysis buffer, and both fractions were assayed for DGK activity.
Since the full-length cDNA of DGKε could not be expressed in COS-7 cells, a PCR product of the DGKε cDNA lacking the 3'-untranslated region and part of the 5'-untranslated region was amplified and cloned into pcDNA/Neo (Invitrogen). The forward primer (SEQ ID NO: 10):
The octyl glucoside/PS mixed-micelle assay of DGK activity was performed as described. Walsh, J. P., Suen, R., Lemaitre, R. N., and Glomset, J. A. (1994) J. Biol. Chem. 269, 21155-21164. In brief, the assay mixture contained 50 mm MOPS, pH 7.2, 100 mm NaCl, 20 mm MgCl2, 1 mm EGTA, 1 mm dithoiothreitol, 2 mm discylglycerol, 3.5 mm phosphatidylserine, 75 mm octyl-β-glucopyranoside, 500 μm [γ-^32 P] ATP, and 20 μg of cellular protein in a volume of 200 μl. The reaction was initiated by the addition of [γ-^32 P] ATP (20-30 μCi/μmol) and processed for 10 min at 24° C. […] The amount of phosphatidic acid formed per reaction was calculated by dividing the radioactivity in phosphatidic acid by the specific radioactivity of the ATP in the reaction.

DGK.zeta. [3] = assay: DAG kinase assay, homogenates of DGK.zeta.-transfected COS-7 cells; type: biochemical, human
Description: as §1, §2

In the case of “KASKKKKRASFKRKSSKK [DGK peptide, 18 amino acid peptide corresponding to residues 256-273 of DGK.zeta]”, the Km ([1]; listed as native peptide) is reported as roughly 0.5 µM, the Km [1] is reported as 0.5 µM and the Hill constant ([1]; phosphorylation by PKM) is reported as 0.7.
With `CCCCCCCC/C=C\CCCCCCCC(=O)O[C@@H](CO)COC(=O)CCCCCCCCCCCCCCC` [1-Palmitoyl-2-oleoyl-sn-glycerol] the “nmol phosphatidic acid/mg/h (DAG substrate specificity of DGK.zeta.)” value (shortened to “nmol phosphatidic acid/mg/h”) (DGK.zeta. [2]) was 805 ± 8 nmol phosphatidic acid/mg/h.
With `O=c1c2ccccc2[nH]c(=S)n1CCN1CCC(=C(c2ccc(F)cc2)c2ccc(F)cc2)CC1` [R59949] the “inhibition of DGKε activity” value (DGKε) was roughly 41%, the activity at 100 µM (DGK.zeta. [2]; 100 μm R59949, read-out: DGK.zeta. activity in presence of inhibitor) was 94% and the “DAG kinase activity of DGK.zeta.-transfected cells in presence of inhibitor” value (DGK.zeta. [2]; summary statement) was “not altered”.
`CCCCCCCC/C=C\CCCCCCCC(=O)O[C@@H](CO)COC(=O)CCCCCCCCCCCCCCCCC` [1-Stearoyl-2-oleoyl-sn-glycerol] was tested, and the “nmol phosphatidic acid/mg/h” value (DGK.zeta. [2]) was 801 ± 13 nmol phosphatidic acid/mg/h.
With `CCCCCCCC/C=C\CCCCCCCC(=O)OCC(O)COC(=O)CCCCCCC/C=C\CCCCCCCC` [1,3-Dioleoyl-sn-glycerol] the “nmol phosphatidic acid/mg/h” value (DGK.zeta. [2]) was 110 ± 8 nmol phosphatidic acid/mg/h.
For `[Ca+2]` [calcium], the “effect of excess calcium on DGK.zeta. activity” value (DGK.zeta. [2]; 0.1-2 mm calcium added at start of reaction) was “no increase in activity”.
In the case of `CCCCCCCCCC(=O)OC[C@H](CO)OC(=O)CCCCCCCCC` [1,2-Dicapryl-sn-glycerol], the “nmol phosphatidic acid/mg/h” value (DGK.zeta. [2]) is reported as 1440 ± 42 nmol phosphatidic acid/mg/h.
In the case of phosphatidylserine, the “effect of increased phosphatidylserine concentration on DGKε activity” value (DGKε; additional 3.5 mm phosphatidylserine added to reaction mixture) is reported as “only slightly increased”.
With `CCCCCCCC/C=C\CCCCCCCC(=O)OC[C@H](CO)OC(=O)CCCCCCC/C=C\CCCCCCCC` [1,2-Dioleoyl-sn-glycerol] the “nmol phosphatidic acid/mg/h” value (DGK.zeta. [2]) was 1021 ± 9 nmol phosphatidic acid/mg/h.
For `CCCCCCCC/C=C\CCCCCCCC(=O)OC[C@H](CO)OC(=O)CCCCCCCCCCCCCCC` [1-Oleoyl-2-palmitoyl-sn-glycerol], the “nmol phosphatidic acid/mg/h” value (DGK.zeta. [2]) was 856 ± 35 nmol phosphatidic acid/mg/h.
In the case of `CCCCC/C=C\C/C=C\C/C=C\C/C=C\CCCC(=O)O[C@@H](CO)COC(=O)CCCCCCCCCCCCCCCCC` [1-Stearoyl-2-arachidonyl-sn-glycerol], the “nmol phosphatidic acid/mg/h” value (DGK.zeta. [2]) is reported as 1106 ± 34 nmol phosphatidic acid/mg/h.
For `Cc1nc2sccn2c(=O)c1CCN1CCC(=C(c2ccccc2)c2ccc(F)cc2)CC1` [R59022], the “inhibition of DGKε activity” value (DGKε) was “approximately 11%”.
With “DGK.zeta.: human diacylglycerol kinase zeta, 928-amino acid protein (SEQ ID NO: 4)” the catalytic activity (DGK.zeta. [3]; native vs ankyrin repeat-deleted (FLAG-tagged) DGK.zeta.) was 1764 nmol PA/mg/hr, the DGK.zeta. activity (DGK.zeta. [3]; native vs zinc finger deletion mutants, Table II) was 243 nmol PA/mg/hr and the Relative activity (DGK.zeta. [3]; relative to native DGK.zeta. = 100, Table II) was 100. For the same compound, the DGK activity (DGK.zeta. [2]; 1,2-dicapryl-sn-glycerol substrate, typical experiment, FIG. 21) was 7.5 nmol/mg/min and the “increase in DGK activity compared to vector-transfected cells” value (DGK.zeta. [2]; 1,2-dioleoyl-sn-glycerol substrate, FIG. 7) was 267 fold.
